Source: patent US20230234967A1, “Fused Azole Heterocycles as AHR Antagonists” (Senda Biosciences, Inc., priority 2021, published 2023)

tested on: not listed separately; assay: Solubility Determination Assay (PBS pH 1.6 and pH 7.4); format: physicochemical; conditions: PBS buffer, aqueous buffer, kinetic from dmso stock; PBS pH 1.6, 25° C., 2 hours shaking; read-out: Aq. Solubility at pH = 1.6
Experimental: Example 31: Solubility Determination Assay
The stock solutions of test compounds and control compound progesterone were prepared in DMSO at the concentrations of 10 mM. 15 μL of stock solution (10 mM) of each sample was placed in order into their proper 96-well rack. 485 μL of PBS pH 1.6 and pH 7.4 were added into each vial of the cap-less Solubility Sample plate. The assay was performed in singlet. One stir stick was added to each vial and then the vial was sealed using a molded PTFE/Silicone plug. The solubility sample plates were then transferred to the Eppendorf Thermomixer Comfort plate shaker and shaken at 25° C. at 1100 rpm for 2 hours. After completion of the 2 hours, plugs were removed and the stir sticks were removed using a big magnet. The samples from the Solubility Sample plate were transferred into the filter plate. Using the Vacuum Manifold, all the samples were filtered. An aliquot of 5 μL was taken from the filtrate followed by addition of 495 μL of a mixture of H2O and acetonitrile containing internal standard (1:1). A certain proportion of ultrapure water was used to dilute the diluent according to the peak shape. The dilution factor was changed according to the solubility values and the LC-MS signal response.
From the 10 mM DMSO STD plate, 6 μL was transferred into the remaining empty plate, and then 194 μL of DMSO were added to that plate to have a STD concentration of 300 μM. From the 300 μM DMSO STD plate, 5 μL were transferred into the remaining empty plate, and then 495 μL of a mixture of H2O and acetonitrile containing internal standard (1:1) were added to that plate to have a final STD concentration of 3 μM. A certain proportion of ultrapure water was used to dilute the diluent according to the peak shape. The concentrations of the standard samples were changed according to the LC-MS signal response.
The plate was placed into the well plate autosampler. The samples were evaluated by LC-MS/MS analysis.
All calculations were carried out using Microsoft Excel.
The filtrate was analyzed and quantified against a standard of known concentration using LC coupled with mass spectral peak identification and quantitation. Solubility values of the test compound and control compound were calculated as follows: […]
Any value of the compounds that was not within the specified limits was rejected and the experiment was repeated.
“+++” indicates a solubility value equal to or greater than […] “++” indicates a solubility value between 0.1 and 1 μM and “+” indicates a solubility value less than 0.1 μM.

Compound `Cc1ccccc1-c1cc2ncc(NC(=O)c3ccnn3C)cc2[nH]1` [Product 49, 1-methyl-N-(2-(o-tolyl)-1H-pyrrolo[3,2-b]pyridin-6-yl)-1H-pyrazole-5-carboxamide] has a solubility at 2 h of no less than 1 µM.

same assay, conditions: PBS buffer, aqueous buffer, kinetic from dmso stock; PBS pH 7.4, 25° C., 2 hours shaking; read-out: Aq. Solubility at pH = 7.4

`Cc1ccccc1-c1cc2ncc(NC(=O)c3ccnn3C)cc2[nH]1` [Product 49, 1-methyl-N-(2-(o-tolyl)-1H-pyrrolo[3,2-b]pyridin-6-yl)-1H-pyrazole-5-carboxamide] gave a solubility at 2 h of no less than 1 µM.

target: T1, AHR (Homo sapiens, UniProt P35869); assay: DRE-Luciferase Reporter Assay (HepG2 AhR-Lucia reporter cells); format: cell-based; conditions: AHR activating ligand at its EC50, luciferase read-out, read-out: HEPG2 Luc IC50
T1 construct: other cell line with a DRE-luciferase reporter stably transfected; endogenous in cells; host or cells: Human HepG2 liver carcinoma AhR-Lucia reporter cells
T1 sequence (P35869 11-848): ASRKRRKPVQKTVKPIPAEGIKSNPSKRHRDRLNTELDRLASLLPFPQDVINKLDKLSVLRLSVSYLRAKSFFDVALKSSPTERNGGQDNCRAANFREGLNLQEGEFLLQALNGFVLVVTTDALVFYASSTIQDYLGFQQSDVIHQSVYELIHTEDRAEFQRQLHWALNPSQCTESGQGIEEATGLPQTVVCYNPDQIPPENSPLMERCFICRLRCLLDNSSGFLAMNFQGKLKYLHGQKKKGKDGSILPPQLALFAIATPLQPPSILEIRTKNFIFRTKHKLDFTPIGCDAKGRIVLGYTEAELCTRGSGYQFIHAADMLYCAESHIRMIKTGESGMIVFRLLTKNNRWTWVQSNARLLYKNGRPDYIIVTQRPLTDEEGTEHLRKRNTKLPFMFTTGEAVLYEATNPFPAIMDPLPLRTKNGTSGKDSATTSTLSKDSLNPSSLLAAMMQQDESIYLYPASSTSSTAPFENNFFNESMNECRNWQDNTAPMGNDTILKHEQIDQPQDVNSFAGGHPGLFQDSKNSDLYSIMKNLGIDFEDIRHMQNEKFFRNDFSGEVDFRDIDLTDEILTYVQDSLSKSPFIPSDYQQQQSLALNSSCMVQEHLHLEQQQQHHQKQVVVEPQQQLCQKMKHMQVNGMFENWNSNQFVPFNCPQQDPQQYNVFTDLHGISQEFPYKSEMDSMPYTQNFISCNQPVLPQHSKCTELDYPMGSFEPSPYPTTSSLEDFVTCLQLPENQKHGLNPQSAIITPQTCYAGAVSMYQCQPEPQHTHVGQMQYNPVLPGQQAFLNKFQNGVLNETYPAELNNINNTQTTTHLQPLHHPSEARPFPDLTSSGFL
Text: Example 27: DRE-Luciferase Reporter Assay
AHR binds to Dioxin Responsive Elements (DRE) upstream of genes that it activates. One measure of AHR activity is activation of a reporter gene, such as luciferase, downstream of one or multiple DRE elements. Luciferase activity will reflect activation and inhibition of AHR in the cells expressing his reporter. 20000 Human HepG2 liver carcinoma—AhR-Lucia reporter cells or Human HT29 colon adenocarcinoma—AhR reporter cells or other cell line with a DRE-luciferase reporter stably transfected were plated in Eagle's Minimal Essential Medium, 10% heat-inactivated FBS, 1×non-essential amino acids Pen-Strep (10,000 U/mL) and Normocin (100 ug/mL) in plates (96-well, 384-well or other plates) and incubated overnight at 37° C. in a CO2 incubator and treated with and without AhR antagonists at a log dilution starting at 100 uM.
After 1 hr that cells were plated an AHR activating ligand, such as TCDD, kynurenine, ITE (2-(1H-indole-3-ylcarbonyl)-4-thiazolecarboxylic methyl ester), VAF347, BNF (beta-naphthoflavone), FICZ (6-formylindolo(3,2-b) carbazole) or other AHR ligands at their specific EC50 concentration, were added to the cells with or without AHR antagonist.
Cells were incubated for 24 or 48 hours or another time point and then, supernatant was analyzed for determination of luciferase activity as a read-out of the AHR activation or inhibition. Luciferase was measured with the commercial kit QUANTI-Luc™ assay solution kit from Invivogen following the manufacturer's instructions.
The level of luciferase with only agonist ligand added was the maximum signal while the luciferase with […] was the minimum signal. IC50 values were determined as the concentration which inhibits half of the luciferase activity. “A” indicates an IC50 value less than 100 nM, “B” indicates an IC50 between 100 and 500 nM, “C” indicates an IC50 above 500 nM.

First: CN(CCO)c1ccccc1-c1ccc2nc(NC(=O)c3ccnn3C)sc2n1 [Product 37, N-(5-(2-((2-hydroxyethyl)(methyl)amino)phenyl)thiazolo[5,4-b]pyridin-2-yl)-1-methyl-1H-pyrazole-5-carboxamide]
Second: Cc1ccccc1-c1ccc2sc(NC(=O)c3ccnn3C)nc2n1 [Product 41, 1-methyl-N-(5-(o-tolyl)thiazolo[4,5-b]pyridin-2-yl)-1H-pyrazole-5-carboxamide]
The IC50 of the first is lower: 100 to 500 nM for the first, greater than 500 nM for the second. The first is the more potent here.

`Cc1ccccc1-c1ccc2nc(NC(=O)N3CCN(C)CC3)sc2n1` [Product 40, 4-methyl-N-(5-(o-tolyl)thiazolo[5,4-b]pyridin-2-yl)piperazine-1-carboxamide] and `Cc1ccccc1-c1cc2sc(NC(=O)c3ccnn3C)nc2cn1` [Product 42, 1-methyl-N-(6-(o-tolyl)thiazolo[4,5-c]pyridin-2-yl)-1H-pyrazole-5-carboxamide] cannot be ordered by IC50: greater than 500 nM for the first, greater than 500 nM for the second.

First: Cc1ccccc1-c1ccc2nc(NC(=O)c3ccnn3C)oc2n1 [Product 43, 1-methyl-N-(5-(o-tolyl)oxazolo[5,4-b]pyridin-2-yl)-1H-pyrazole-5-carboxamide]
Second: Cc1ccccc1-c1cc2cnc(NC(=O)c3ccnn3C)nc2[nH]1 [Product 48]
The IC50 of the first is higher: greater than 500 nM for the first, 100 to 500 nM for the second. The second is the more potent here.

`Cn1nccc1C(=O)Nc1cnc2cc(-c3ccccc3C(F)(F)F)[nH]c2c1` [Product 44, 1-methyl-N-(2-(2-(trifluoromethyl)phenyl)-1H-pyrrolo[3,2-b]pyridin-6-yl)-1H-pyrazole-5-carboxamide] and `Cc1ccccc1-c1cc2ncc(NC(=O)c3ccnn3C)cc2[nH]1` [Product 49, 1-methyl-N-(2-(o-tolyl)-1H-pyrrolo[3,2-b]pyridin-6-yl)-1H-pyrazole-5-carboxamide] fall in the same range of IC50: 100 to 500 nM for the first, 100 to 500 nM for the second.

Compared with `Cn1ncnc1C(=O)Nc1cnc2cc(-c3ccccc3C(F)(F)F)[nH]c2c1` [Product 45], `Cc1ccccc1-c1cc2ncc(NC(=O)c3ncnn3C)cc2[nH]1` [Product 46] is higher in IC50: less than 100 nM for the first, 100 to 500 nM for the second. The first is the more potent here.

`Cc1ccccc1-c1cc2ncc(NC(=O)c3ccnn3C)nc2[nH]1` [Product 50, 1-methyl-N-(6-(o-tolyl)-5H-pyrrolo[2,3-b]pyrazin-3-yl)-1H-pyrazole-5-carboxamide] gave an IC50 greater than 500 nM.
